Measured values taken from ChEMBL document CHEMBL1201862, “PubChem BioAssay data set” (2004).
Activity calls are given as the source filed them.

Key:
[1] = target: T1, Mitochondrial peptide methionine sulfoxide reductase (Bos taurus, UniProt P54149); assay: Absorbance-based biochemical high throughput dose response assay for activators of Methionine sulfoxide reductase A (MsrA).; type: functional
T1 sequence (P54149 whole entry): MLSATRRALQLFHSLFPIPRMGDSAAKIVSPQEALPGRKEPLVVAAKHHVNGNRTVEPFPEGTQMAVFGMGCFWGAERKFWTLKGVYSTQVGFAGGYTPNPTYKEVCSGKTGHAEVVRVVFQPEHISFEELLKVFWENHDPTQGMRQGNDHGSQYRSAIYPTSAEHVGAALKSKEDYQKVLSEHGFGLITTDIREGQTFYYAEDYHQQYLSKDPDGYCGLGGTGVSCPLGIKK

[2] = test system: Streptococcus sp. 'group A'; assay: Streptococcus pyogenes SK(-)GAS viability under kanamycin – luminescence, BacTiterGlo, confirmation, counter-screen for streptokinase expression inhibitor project, dose response (AID 1900); type: functional, organism-based
Beta-galactosidase = Beta-galactosidase (Escherichia coli, UniProt Q8VNN2); assay: PubChem AID 485352; type: functional
Streptococcus = assay: GAS UMAA2166 growth inhibition – luminescence, BacTiterGlo, counter-screen for streptokinase expression inhibitor project, dose response (AID 1915); type: functional, organism-based;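 note: potency for reduction of bacterial viability or growth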
Streptokinase A = target: T2, Streptokinase A (Streptococcus pyogenes serotype M1, UniProt P10520); assay: viability-normalized secreted streptokinase activity reduction – plasminogen activation absorbance, OD405, dose response (AID 1914); type: functional, Streptococcus pyogenes M1 GAS;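 note: secreted streptokinase activity via plasminogen activation per viability signal from cell pellet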
T2 sequence (P10520 whole entry): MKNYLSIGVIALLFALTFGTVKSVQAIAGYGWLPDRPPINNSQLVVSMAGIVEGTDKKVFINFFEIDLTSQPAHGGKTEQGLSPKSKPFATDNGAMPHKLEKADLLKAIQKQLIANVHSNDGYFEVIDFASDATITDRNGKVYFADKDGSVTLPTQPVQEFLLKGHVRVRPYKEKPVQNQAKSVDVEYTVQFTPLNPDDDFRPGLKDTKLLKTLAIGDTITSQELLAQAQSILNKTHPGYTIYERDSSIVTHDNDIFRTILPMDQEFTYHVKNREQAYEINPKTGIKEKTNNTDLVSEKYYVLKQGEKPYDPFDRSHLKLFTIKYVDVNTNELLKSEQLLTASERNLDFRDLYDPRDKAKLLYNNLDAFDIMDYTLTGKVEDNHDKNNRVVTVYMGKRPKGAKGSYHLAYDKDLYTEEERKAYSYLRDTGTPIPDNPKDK

[3] = viability of PTEN-deleted HCT116 cells – cell-based, HCT116 PTEN knockout, dose response (AID 1047); type: functional;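 note: HCT116 colon tumor cells with PTEN knocked out; cells exposed to compound for 60 hours before readout; potency for loss of cell viability measured by luminescence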
[4] = viability of HCT116 lacking mutant beta-catenin – cell-based, human colon tumor, dose response (AID 1045); type: functional;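 note: HCT116 colon tumor cells with beta catenin knocked out; cells exposed to compound for 60 hours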
[5] = target: T3, Mannose-6-phosphate isomerase (Homo sapiens, UniProt P34949); assay: MPI inhibition at elevated mannose 6-phosphate – biochemical, fluorescence intensity, high mannose 6-phosphate, primary screen (AID 1220)
T3 sequence (P34949 whole entry): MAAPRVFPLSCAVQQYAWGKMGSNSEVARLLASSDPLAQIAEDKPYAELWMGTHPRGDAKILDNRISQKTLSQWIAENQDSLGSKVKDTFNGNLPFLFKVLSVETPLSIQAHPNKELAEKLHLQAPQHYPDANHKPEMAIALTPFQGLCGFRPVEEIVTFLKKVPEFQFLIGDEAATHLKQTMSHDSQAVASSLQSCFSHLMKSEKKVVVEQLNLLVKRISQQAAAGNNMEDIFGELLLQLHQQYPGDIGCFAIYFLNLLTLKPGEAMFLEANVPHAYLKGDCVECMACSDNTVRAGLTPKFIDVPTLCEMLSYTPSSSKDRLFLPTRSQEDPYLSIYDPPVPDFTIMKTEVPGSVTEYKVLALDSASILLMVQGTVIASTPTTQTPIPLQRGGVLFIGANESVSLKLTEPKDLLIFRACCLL

[6] = target: Peroxisome proliferator-activated receptor gamma/Nuclear receptor coactivator 3 (Homo sapiens, UniProt P37231); type: functional;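 note: agonist potency for raising coactivator recruitment to the receptor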
[7] = target: Induced myeloid leukemia cell differentiation protein Mcl-1 (Homo sapiens, UniProt Q07820); type: functional
[8] = target: T4, Tyrosyl-DNA phosphodiesterase 2 (Homo sapiens, UniProt O95551); assay: potency against TDP2 phosphodiesterase activity – biochemical, epi absorbance, IC50, dose response (AID 743297)
T4 sequence (O95551 whole entry): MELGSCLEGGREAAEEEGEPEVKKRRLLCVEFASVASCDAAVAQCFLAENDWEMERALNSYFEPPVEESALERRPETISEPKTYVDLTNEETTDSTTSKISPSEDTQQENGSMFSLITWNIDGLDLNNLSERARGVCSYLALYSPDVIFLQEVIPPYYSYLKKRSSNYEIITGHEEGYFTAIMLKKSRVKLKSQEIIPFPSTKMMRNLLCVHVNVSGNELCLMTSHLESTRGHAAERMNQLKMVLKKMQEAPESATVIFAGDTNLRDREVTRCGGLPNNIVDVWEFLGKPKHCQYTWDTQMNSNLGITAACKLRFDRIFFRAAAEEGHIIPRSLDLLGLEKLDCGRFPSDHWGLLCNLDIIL

[9] = target: Ribosomal protein S6 kinase alpha-3 (Homo sapiens, UniProt P51812); type: functional;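 note: measured within a kinome-wide profiling panel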
[10] = target: Dual specificity protein kinase CLK2 (Homo sapiens, UniProt P49760); type: functional
[11] = target: Phosphorylase b kinase gamma catalytic chain, liver/testis isoform (Homo sapiens, UniProt P15735); type: functional;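 note: PHKG2 measured as one member of a kinome-wide kinase panel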
[12] = target: Serine/threonine-protein kinase D3 (Homo sapiens, UniProt O94806); type: functional;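 note: determined within a kinase panel screen, with PRKCN as the panel member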
[13] = target: Testis-specific serine/threonine-protein kinase 2 (Homo sapiens, UniProt Q96PF2); type: functional;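 note: part of the Navigating the Kinome panel, target entry STK22B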
[14] = target: Cyclin-dependent kinase 2 (Homo sapiens, UniProt P24941); type: functional;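 note: CDK2 measured as one member of a broad kinome profiling panel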
[15] = target: Tyrosine-protein kinase BTK (Homo sapiens, UniProt Q06187); type: functional
[16] = target: Casein kinase I isoform gamma-1 (Homo sapiens, UniProt Q9HCP0); type: functional;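 note: measured as the CSNK1G1 member of a kinome profiling panel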
[17] = target: Proto-oncogene tyrosine-protein kinase ROS (Homo sapiens, UniProt P08922); type: functional;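 note: ROS1 tested as one member of a kinome-wide kinase panel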
[18] = target: Tyrosine-protein kinase Srms (Homo sapiens, UniProt Q9H3Y6); type: functional;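 note: SRMS measured as one member of a kinome-wide kinase profiling panel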
[19] = target: Mitogen-activated protein kinase 1 (Homo sapiens, UniProt P28482); type: functional
[20] = target: Protein-tyrosine kinase 6 (Homo sapiens, UniProt Q13882); type: functional
[21] = target: cAMP-dependent protein kinase catalytic subunit alpha (Homo sapiens, UniProt P17612); type: functional
[22] = target: Mitogen-activated protein kinase kinase kinase kinase 4 (Homo sapiens, UniProt O95819); type: functional

Sequence of Phosphorylase b kinase gamma catalytic chain, liver/testis isoform (P15735 whole entry, canonical isoform): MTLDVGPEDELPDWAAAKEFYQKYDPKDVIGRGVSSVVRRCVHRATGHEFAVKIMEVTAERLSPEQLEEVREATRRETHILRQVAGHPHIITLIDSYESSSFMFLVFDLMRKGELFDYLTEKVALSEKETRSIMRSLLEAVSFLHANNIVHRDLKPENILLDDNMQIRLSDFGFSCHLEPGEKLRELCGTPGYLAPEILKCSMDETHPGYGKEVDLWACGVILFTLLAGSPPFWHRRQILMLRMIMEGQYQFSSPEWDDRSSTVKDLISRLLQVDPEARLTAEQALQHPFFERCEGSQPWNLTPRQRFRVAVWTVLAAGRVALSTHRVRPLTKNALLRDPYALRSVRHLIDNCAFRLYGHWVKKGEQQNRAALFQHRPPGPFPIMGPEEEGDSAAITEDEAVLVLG
Sequence of Proto-oncogene tyrosine-protein kinase ROS (P08922 whole entry): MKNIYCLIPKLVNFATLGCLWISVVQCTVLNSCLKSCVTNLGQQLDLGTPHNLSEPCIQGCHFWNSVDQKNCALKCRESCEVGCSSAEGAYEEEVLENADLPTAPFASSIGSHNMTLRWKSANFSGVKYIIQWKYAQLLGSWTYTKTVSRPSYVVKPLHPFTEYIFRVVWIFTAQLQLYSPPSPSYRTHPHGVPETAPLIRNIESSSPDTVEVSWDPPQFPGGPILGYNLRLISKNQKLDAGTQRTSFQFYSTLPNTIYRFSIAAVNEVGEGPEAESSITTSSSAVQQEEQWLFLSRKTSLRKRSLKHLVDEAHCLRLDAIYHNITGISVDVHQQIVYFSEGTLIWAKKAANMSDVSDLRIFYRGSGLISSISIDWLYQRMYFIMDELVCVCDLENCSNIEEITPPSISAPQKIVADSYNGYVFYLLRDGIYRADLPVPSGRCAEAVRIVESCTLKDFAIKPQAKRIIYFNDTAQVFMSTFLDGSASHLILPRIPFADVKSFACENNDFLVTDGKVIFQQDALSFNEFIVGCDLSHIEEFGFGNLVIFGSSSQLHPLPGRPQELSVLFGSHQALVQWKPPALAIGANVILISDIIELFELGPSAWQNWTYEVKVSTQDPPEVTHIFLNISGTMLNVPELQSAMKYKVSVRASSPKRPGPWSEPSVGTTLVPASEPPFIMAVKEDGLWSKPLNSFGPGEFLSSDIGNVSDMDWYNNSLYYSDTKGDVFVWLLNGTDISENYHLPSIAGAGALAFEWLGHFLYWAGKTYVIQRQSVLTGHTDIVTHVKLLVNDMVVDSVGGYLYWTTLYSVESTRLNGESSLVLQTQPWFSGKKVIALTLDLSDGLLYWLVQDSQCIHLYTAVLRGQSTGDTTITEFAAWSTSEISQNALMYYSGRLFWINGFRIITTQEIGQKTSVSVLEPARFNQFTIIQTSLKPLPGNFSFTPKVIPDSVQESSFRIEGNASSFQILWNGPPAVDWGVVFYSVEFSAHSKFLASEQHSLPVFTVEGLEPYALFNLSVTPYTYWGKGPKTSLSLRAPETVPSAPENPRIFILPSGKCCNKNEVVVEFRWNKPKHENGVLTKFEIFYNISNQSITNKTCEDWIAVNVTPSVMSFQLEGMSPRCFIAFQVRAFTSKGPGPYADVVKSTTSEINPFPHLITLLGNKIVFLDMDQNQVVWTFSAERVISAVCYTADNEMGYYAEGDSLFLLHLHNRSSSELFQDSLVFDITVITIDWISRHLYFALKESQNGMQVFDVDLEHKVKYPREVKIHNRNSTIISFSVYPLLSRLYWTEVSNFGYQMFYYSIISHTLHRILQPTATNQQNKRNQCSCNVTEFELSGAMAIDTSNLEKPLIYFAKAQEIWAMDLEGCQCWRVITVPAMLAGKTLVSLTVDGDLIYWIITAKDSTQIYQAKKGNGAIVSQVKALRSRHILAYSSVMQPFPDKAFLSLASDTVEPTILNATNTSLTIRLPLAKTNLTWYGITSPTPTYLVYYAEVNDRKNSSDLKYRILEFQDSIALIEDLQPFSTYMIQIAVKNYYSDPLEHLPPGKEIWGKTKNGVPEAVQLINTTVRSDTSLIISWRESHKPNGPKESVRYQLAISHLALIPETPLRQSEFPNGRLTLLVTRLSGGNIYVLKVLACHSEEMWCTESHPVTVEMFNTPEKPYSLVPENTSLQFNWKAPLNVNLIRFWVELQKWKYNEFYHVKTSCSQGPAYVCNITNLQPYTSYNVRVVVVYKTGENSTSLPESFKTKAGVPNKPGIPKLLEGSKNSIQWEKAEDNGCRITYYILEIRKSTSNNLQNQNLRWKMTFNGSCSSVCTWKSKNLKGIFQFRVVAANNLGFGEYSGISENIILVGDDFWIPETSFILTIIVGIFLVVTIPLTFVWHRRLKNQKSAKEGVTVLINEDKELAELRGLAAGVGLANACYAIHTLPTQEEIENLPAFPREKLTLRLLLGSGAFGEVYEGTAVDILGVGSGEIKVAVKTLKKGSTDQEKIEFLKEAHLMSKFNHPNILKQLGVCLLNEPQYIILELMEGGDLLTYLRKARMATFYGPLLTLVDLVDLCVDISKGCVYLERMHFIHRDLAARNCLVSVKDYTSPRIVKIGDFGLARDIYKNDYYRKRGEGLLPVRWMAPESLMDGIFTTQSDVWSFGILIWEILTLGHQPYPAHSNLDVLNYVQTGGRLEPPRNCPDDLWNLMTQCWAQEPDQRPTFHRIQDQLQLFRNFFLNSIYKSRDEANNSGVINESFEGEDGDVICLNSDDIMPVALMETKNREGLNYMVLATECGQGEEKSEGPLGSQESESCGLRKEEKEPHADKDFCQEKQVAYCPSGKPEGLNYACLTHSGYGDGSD
Sequence of Induced myeloid leukemia cell differentiation protein Mcl-1 (Q07820 whole entry): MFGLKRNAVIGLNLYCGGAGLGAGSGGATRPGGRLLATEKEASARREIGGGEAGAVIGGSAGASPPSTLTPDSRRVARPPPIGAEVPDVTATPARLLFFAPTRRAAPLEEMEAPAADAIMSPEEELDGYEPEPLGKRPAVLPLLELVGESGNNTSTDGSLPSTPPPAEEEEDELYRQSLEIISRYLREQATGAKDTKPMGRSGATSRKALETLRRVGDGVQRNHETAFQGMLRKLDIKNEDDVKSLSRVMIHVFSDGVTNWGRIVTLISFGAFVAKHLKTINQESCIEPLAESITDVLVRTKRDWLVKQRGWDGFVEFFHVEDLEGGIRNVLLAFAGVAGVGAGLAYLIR
Sequence of Serine/threonine-protein kinase D3 (O94806 whole entry): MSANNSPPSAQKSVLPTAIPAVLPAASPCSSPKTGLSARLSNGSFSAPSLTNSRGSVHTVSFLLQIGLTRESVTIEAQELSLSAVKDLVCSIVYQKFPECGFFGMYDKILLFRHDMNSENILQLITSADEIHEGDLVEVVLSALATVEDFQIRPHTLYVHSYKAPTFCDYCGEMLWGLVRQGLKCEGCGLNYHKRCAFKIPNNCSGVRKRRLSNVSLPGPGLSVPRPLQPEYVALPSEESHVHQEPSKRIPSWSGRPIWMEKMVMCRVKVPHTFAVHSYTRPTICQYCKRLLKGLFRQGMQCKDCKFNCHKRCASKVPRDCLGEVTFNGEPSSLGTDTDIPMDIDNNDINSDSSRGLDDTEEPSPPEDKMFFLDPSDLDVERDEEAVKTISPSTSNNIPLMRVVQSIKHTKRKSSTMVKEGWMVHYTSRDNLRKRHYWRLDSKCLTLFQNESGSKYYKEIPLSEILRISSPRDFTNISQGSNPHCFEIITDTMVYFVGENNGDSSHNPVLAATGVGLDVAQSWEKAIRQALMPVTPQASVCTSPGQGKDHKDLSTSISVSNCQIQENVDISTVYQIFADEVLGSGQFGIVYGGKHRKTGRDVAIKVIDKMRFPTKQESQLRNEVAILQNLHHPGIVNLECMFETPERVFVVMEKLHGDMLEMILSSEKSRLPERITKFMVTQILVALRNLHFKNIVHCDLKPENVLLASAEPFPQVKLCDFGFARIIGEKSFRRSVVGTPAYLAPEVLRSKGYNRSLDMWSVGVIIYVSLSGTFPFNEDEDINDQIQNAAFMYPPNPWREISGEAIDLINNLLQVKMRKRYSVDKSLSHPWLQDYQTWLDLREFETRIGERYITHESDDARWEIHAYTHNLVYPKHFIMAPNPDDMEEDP
Sequence of Beta-galactosidase (Q8VNN2 whole entry): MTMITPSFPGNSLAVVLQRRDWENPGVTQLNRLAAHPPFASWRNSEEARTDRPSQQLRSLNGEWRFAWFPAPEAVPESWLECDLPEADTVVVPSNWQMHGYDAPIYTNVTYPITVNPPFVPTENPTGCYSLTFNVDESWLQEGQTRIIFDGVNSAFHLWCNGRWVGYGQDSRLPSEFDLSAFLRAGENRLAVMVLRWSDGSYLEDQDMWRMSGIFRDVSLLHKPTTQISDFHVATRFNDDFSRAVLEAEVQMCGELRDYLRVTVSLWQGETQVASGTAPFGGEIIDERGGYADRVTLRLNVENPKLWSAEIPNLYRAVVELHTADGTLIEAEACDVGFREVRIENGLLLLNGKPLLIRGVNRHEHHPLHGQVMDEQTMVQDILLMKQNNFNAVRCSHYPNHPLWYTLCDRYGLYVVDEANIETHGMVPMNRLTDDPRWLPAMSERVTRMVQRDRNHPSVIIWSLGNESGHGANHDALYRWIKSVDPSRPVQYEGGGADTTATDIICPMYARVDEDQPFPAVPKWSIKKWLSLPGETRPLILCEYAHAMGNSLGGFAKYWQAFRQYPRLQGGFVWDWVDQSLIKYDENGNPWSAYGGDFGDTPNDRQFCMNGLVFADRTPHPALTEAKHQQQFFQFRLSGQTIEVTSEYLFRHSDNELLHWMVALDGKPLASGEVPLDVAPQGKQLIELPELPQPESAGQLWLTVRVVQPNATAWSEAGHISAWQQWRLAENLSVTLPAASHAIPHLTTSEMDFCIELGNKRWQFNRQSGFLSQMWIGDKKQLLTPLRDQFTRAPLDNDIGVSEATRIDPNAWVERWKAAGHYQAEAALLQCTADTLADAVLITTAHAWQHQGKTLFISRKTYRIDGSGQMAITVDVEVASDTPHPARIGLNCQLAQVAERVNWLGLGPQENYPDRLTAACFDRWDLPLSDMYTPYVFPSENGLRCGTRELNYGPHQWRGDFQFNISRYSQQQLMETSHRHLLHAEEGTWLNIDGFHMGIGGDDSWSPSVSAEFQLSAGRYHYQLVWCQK

O=C1C(Cl)=C(NCc2cccnc2)C(=O)c2ccccc21
EC50 [1]: > 104 µM (inactive)

Cc1ccc(Nc2cc(C)nn2-c2nc(C)cc(O)n2)cc1
EC50 [2]: < 0.06 µM (active)
EC50 (Beta-galactosidase): > 40 µM (inactive)
EC50 (Streptococcus): 0.065 µM (active)

Cc1ccc(C(=O)c2c(C)oc3c2C(=O)C(=O)c2ccccc2-3)cc1
EC50 [2]: 0.566 µM (active)
EC50 (Streptokinase A): > 150 µM (not active)
EC50 [3]: 3.11 µM (active)
EC50 [4]: 2.66 µM (active)
EC50 (Streptococcus): 13.6 µM (active)
IC50 [5]: > 50 µM (not active)

CN(C)c1ncc(C2=C(Cl)C(=O)C(N3CCCC3)=C(Cl)C2=O)s1
EC50 [2]: 24.5 µM (active)
EC50 [6]: > 79.4 µM (not active)
EC50 (Streptokinase A): > 150 µM (not active)
EC50 [3]: 5.41 µM (active)
EC50 [4]: 6.06 µM (active)
IC50 [7]: 26.4 µM (active)
EC50 (Streptococcus): 135 µM (active)

O=C1C(O)=C/C(=N\c2ccccc2O)c2ccccc21
EC50 [2]: 3.4 µM (active)
EC50 (Streptokinase A): 132 µM (active)
EC50 (Streptococcus): > 150 µM (not active)
EC50 [1]: > 104 µM (inactive)
IC50 [8]: 37.7 µM (inactive)

O=C1NC(=S)SC1=C1C(=O)Nc2ccc(Br)cc21
Ki [9]: > 7.94 µM (inactive)
Ki [10]: 7.94 µM (active)
Ki [11]: > 5.01 µM (inactive)
Ki [12]: > 10 µM (inactive)
Ki [13]: > 1.58 µM (inactive)
Ki [14]: > 7.94 µM (inactive)
Ki [15]: > 1.26 µM (inactive)
Ki [16]: > 6.31 µM (inactive)
Ki [17]: > 2 µM (inactive)
Ki [18]: > 1.58 µM (inactive)
Ki [19]: > 7.94 µM (inactive)
Ki [20]: > 2.51 µM (inactive)
Ki [21]: > 7.94 µM (inactive)
Ki [22]: 0.631 µM (active)

Nc1ccc(Br)c2cccnc12
IC50 [8]: 75.5 µM (inactive)
